The results in this text go back to patent US20060009357A1, “Azo dye, ink jet recording ink, heat sensitive recording material, color toner, color filter, ink jet recording method, ink cartridge and ink jet printer” (FUJI PHOTO FILM CO., LTD., priority 2004, published 2006).

Data set [1] can be described thus: Light fastness of recorded image (xenon light, weatherometer). In kind it is physicochemical. The note with it: dye retention after xenon light 85,000 lux for 7 days; initial densities 1, 1.5, 2.0; Super Photo Grade paper. Details: key: An image having a dye retention of 80% or higher at every measuring point was graded A; An image having a dye retention lower than 80% at one or two out of three points was graded B; An image having a dye retention lower than 80% at every point was graded C. As for the experimental part: An image was recorded on photo glossy paper (Super Photo Grade, available from Fuji Photo Film Co., Ltd.) on ink jet printer (PM-770C, available from Seiko Epson Corp.) by using each of ink liquids A to I. The resulting image was evaluated for hue, light fastness, and ozone resistance as follows.
As to light fastness, the image density immediately after recording (initial density: Ci) was measured with a reflection densitometer X-Rite 310TR. After the image was exposed to xenon light (85,000 lux) for 7 days in a weatherometer (Atlas C.65, from Atlas Electric Devices Co.), the image density (Cf) was measured again at three points whose initial densities were 1, 1.5, and 2.0. A dye retention (%) was calculated from equation: Dye retention (%)=[…]
An image having a dye retention of 80% or higher at every measuring point was graded A. An image having a dye retention lower than 80% at one or two out of three points was graded B. An image having a dye retention lower than 80% at every point was graded C.

Data set [2] can be described thus: Ozone resistance of recorded image (ozone gas chamber). In kind it is physicochemical. The note with it: dye retention after ozone gas 5 ppm for 24 hours; three density points; Super Photo Grade paper. As for the experimental part: An image was recorded on photo glossy paper (Super Photo Grade, available from Fuji Photo Film Co., Ltd.) on ink jet printer (PM-770C, available from Seiko Epson Corp.) by using each of ink liquids A to I. The resulting image was evaluated for hue, light fastness, and ozone resistance as follows. As to ozone resistance, the recorded image was left to stand in a chamber having an ozone gas concentration of 5 ppm for 24 hours. A dye retention after exposure to ozone was obtained in the same manner as for evaluation of light fastness. The ozone concentration in the chamber was set with an ozone gas monitor (OZG-EM-01, available from […] Co., Ltd.). An image having a dye retention of 70% or higher at every measuring point was graded A. An image having a dye retention lower than 70% at one or two out of three points was graded B. An image having a dye retention lower than 70% at every point was graded C.

As for `Cn1c(=O)cc2c3c(c(Nc4ccc(Nc5nc(O)nc(Nc6cc(S(=O)(=O)[O-])ccc6S(=O)(=O)O)n5)cc4S(=O)(=O)O)ccc31)C(=O)c1ccccc1-2.[Na+]` [h-2], the “Light Fastness” value in data set [1] was “B”. For the same compound, the Ozone fastness entry in data set [2] is reported as “C (An image having a dye retention lower than 70% at every point was graded C)”.

As for `O=C(O)c1ccccc1/N=N/c1c(S(=O)(=O)O)cc2cc(S(=O)(=O)[O-])cc(Nc3nc(O)nc(Nc4ccccc4C(=O)O)n3)c2c1O.[Na+]` [h-3], the “Light Fastness” value in data set [1] is “C (An image having a dye retention lower than 80% at every point was graded C)”. Also, the Ozone fastness entry in data set [2] is “C (An image having a dye retention lower than 70% at every point was graded C)”.
